Data taken from patent US20220267374A1, “IMMUNITY INDUCER AND PHARMACEUTICAL COMPOSITION FOR PREVENTING OR TREATING AGING-RELATED DISEASES” (priority 2019, published 2022).
Ends that are not written are not given here.

How the values were obtained:
Assay type in all cases: in vivo, C57BL/6 mice
[1] = system: Gpnmb, Cdkn1a, and Cdkn2a; test: RNA analysis (qPCR) of adipose tissue; conditions: HFD-fed mice, 16 weeks of age, s.c. vaccination at 8 weeks of age, FIG. 2C
Procedure: Total RNA (1 μg) was isolated from adipose tissue samples using RNA-Bee (TEL-TEST Inc.). Real-time PCR (qPCR) was performed using a Light Cycler 480 (Roche) equipped with a universal probe library and a Light Cycler 480 probe master (Roche) according to the manufacturer's instructions. Rplp0 was used as an internal control.
RNA analysis of Gpnmb, Cdkn1a, and Cdkn2a was performed using the same method as in “4.” of Reference Example 1, except that adipose tissue collected from C57BL/6 mice (16 weeks of age) bred by feeding HFD from 4 weeks of age and administered with peptide vaccine 1 or a control vaccine by subcutaneous injection at a time point of 8 weeks of age was used. In FIG. 2C, “Cont vac” is a C57BL/6 mouse administered with a control vaccine, and “Gpnmb vac” is a C57BL/6 mouse administered with peptide vaccine 1.

GPNMB protein = test: Western blotting analysis of adipose tissue; conditions: HFD-fed mice, 16 weeks of age, s.c. vaccination at 8 weeks of age, vs control vaccine, FIGS. 2C, 2D
Procedure: For adipose tissue collected from C57BL/6 mice (16 weeks of age) bred by feeding HFD from 4 weeks of age and administered with peptide vaccine 1 or a control vaccine by subcutaneous injection at a time point of 8 weeks of age, whole-cell lysates were prepared in lysis buffer (containing 10 mmol/L of Tris-HCl (pH 8), 140 mmol/L of sodium chloride, 5 mmol/L of EDTA, 0.025% of NaN3, 1 w/v % of Triton X-100, 1 w/v % of deoxycholic acid, 0.1 w/v % of SDS, 1 mmol/L of phenylmethylsulfonyl fluoride (PMSF), 5 μg/mL of leypeptin, 2 μg/mL of aprotinin, 50 mmol/L of NaF, and 1 mmol/L of […]). Then the lysates (40 to 50 μg) was separated by SDS-PAGE, the protein was transferred to a PVDF membrane (Millipore), and this was incubated with a primary antibody, followed by horseradish peroxidase (Jackson)-binding anti-rabbit immunoglobulin G (Jackson ImmunoResearch). GPNMB and β-actin were detected by enhanced chemiluminescence (Amersham). As a primary antibody, an anti-GPNMB antibody (AF2330, R & D Systems) (1/1000 dilution) was used, and as a control, anti-β-actin antibody (#4967, Cell Signaling) (1/5000 dilution) was used. As a secondary antibody, peroxidase-binding AffiniPure goat anti-rabbit IgG (H+L) (111-035-003, Jackson ImmunoResearch) (1/10000 dilution) was used. […]

[2] = Metabolic test (glucose tolerance test and insulin tolerance test); conditions: HFD-fed mice, 16 weeks of age, s.c. vaccination at 8 weeks of age; compared to control vaccine; FIG. 2I
Procedure: Mice were bred individually from 1 week before the test. On the day of the glucose tolerance test (GTT), mice were fasted for 6 hours, followed by intraperitoneal injection of glucose at a dose of 1 g/kg (body weight) in the early afternoon. For the insulin tolerance test (ITT), mice were intraperitoneally administered with human insulin (1 U/kg (body weight)). After administration of glucose or insulin, tail venous blood was collected 0, 15, 30, 60 and 120 minutes later, and the blood glucose level was measured with a glucose analyzer (Sanwa Chemical Research Institute).
A metabolic test was performed using the same method as in “5.” of Reference Example 1, except that C57BL/6 mice (16 weeks of age) bred by feeding HFD from 4 weeks of age and administered with peptide vaccine 1, peptide vaccine 2, or control vaccine by subcutaneous injection at a time point of 8 weeks of age were used. In FIG. 2I, “Cont vaccine” is a C57BL/6 mouse administered with a control vaccine, “Gpnmb vaccine 1” is a C57BL/6 mouse administered with peptide vaccine 1, and “Gpnmb vaccine 2” is a C57BL/6 mouse administered with peptide vaccine 2.

**Q.** What does the source list for “RRGDGRWKD (also: KLH conjugate; listed as Mus musculus) [peptide vaccine 1, peptide of positions 63 to 71 of mouse GPNMB protein]”?
**A.** expression of Cdkn1a [1]: downregulation; expression of Cdkn2a [1]: downregulation; expression amount of GPNMB protein (GPNMB protein): decreased; metabolic abnormality induced by HFD intake (glucose tolerance test and insulin tolerance test) [2]: significantly improved
